From ChEMBL document CHEMBL4145521, “Regioselective synthesis of 3,4-diaryl-5-unsubstituted isoxazoles, analogues of natural cytostatic combretastatin A4” (Eur J Med Chem, 2018)

Columns and labels:
Assay type in all cases: functional
MOLT-4 = test: Cytotoxicity against human MOLT4 cells assessed as cell growth at 0.01 uM incubated for 48 hrs by sulforhodamine B assay relative to control; conditions: MOLT-4, 48 h, read-out: Activity
NCI-H522 = test: Cytotoxicity against human NCI-H522 cells assessed as cell growth at 0.01 uM incubated for 48 hrs by sulforhodamine B assay relative to control; conditions: NCI-H522, 48 h, read-out: Activity
HCT-116 [1] = test: Cytotoxicity against human HCT116 cells assessed as cell growth at 0.01 uM incubated for 48 hrs by sulforhodamine B assay relative to control; conditions: HCT-116, 48 h, read-out: Activity
SW-620 = test: Cytotoxicity against human SW620 cells assessed as cell growth at 0.01 uM incubated for 48 hrs by sulforhodamine B assay relative to control; conditions: SW-620, 48 h, read-out: Activity
Malme-3M = test: Cytotoxicity against human MALME-3M cells assessed as cell growth at 0.01 uM incubated for 48 hrs by sulforhodamine B assay relative to control; conditions: read-out: Activity
M14 [2] = test: Cytotoxicity against human M14 cells assessed as cell growth at 0.01 uM incubated for 48 hrs by sulforhodamine B assay relative to control; conditions: M14, 48 h, read-out: Activity
MDA-MB-435 = test: Cytotoxicity against human MDA-MB-435 cells assessed as cell growth at 0.01 uM incubated for 48 hrs by sulforhodamine B assay relative to control; conditions: MDA-MB-435, 48 h, read-out: Activity
UACC-62 = test: Cytotoxicity against human UACC62 cells assessed as cell growth at 0.01 uM incubated for 48 hrs by sulforhodamine B assay relative to control; conditions: UACC-62, 48 h, read-out: Activity
OVCAR-5 = test: Cytotoxicity against human OVCAR5 cells assessed as cell growth at 0.01 uM incubated for 48 hrs by sulforhodamine B assay relative to control; conditions: OVCAR-5, 48 h, read-out: Activity
SK-OV-3 = test: Cytotoxicity against human SKOV3 cells assessed as cell growth at 0.01 uM incubated for 48 hrs by sulforhodamine B assay relative to control; conditions: SK-OV-3, 48 h, read-out: Activity
DU-145 [3] = test: Cytotoxicity against human DU145 cells assessed as cell growth at 0.01 uM incubated for 48 hrs by sulforhodamine B assay relative to control; conditions: DU-145, 48 h, read-out: Activity
NCI-H23 [4] = test: Cytotoxicity against human NCI-H23 cells assessed as cell growth at 0.1 uM incubated for 48 hrs by sulforhodamine B assay relative to control; conditions: NCI-H23, 48 h, read-out: Activity
HCC 2998 = test: Cytotoxicity against human HCC2998 cells assessed as cell growth at 0.1 uM incubated for 48 hrs by sulforhodamine B assay relative to control; conditions: HCC 2998, 48 h, read-out: Activity
HCT-116 [5] = test: Cytotoxicity against human HCT116 cells assessed as cell growth at 0.1 uM incubated for 48 hrs by sulforhodamine B assay relative to control; conditions: HCT-116, 48 h, read-out: Activity
T47D [6] = test: Cytotoxicity against human T47D cells assessed as cell growth at 0.1 uM incubated for 48 hrs by sulforhodamine B assay relative to control; conditions: read-out: Activity
NCI-H23 [7] = test: Cytotoxicity against human NCI-H23 cells assessed as cell growth at 1 uM incubated for 48 hrs by sulforhodamine B assay relative to control; conditions: NCI-H23, 48 h, read-out: Activity
OVCAR-8 [8] = test: Cytotoxicity against human OVCAR8 cells assessed as cell growth at 1 uM incubated for 48 hrs by sulforhodamine B assay relative to control; conditions: OVCAR-8, 48 h, read-out: Activity
ACHN [9] = test: Cytotoxicity against human ACHN cells assessed as cell growth at 1 uM incubated for 48 hrs by sulforhodamine B assay relative to control; conditions: read-out: Activity
DU-145 [10] = test: Cytotoxicity against human DU145 cells assessed as cell growth at 1 uM incubated for 48 hrs by sulforhodamine B assay relative to control; conditions: DU-145, 48 h, read-out: Activity
A549 = test: Cytotoxicity against human A549/ATCC cells assessed as cell growth at 10 uM incubated for 48 hrs by sulforhodamine B assay relative to control; conditions: A549, 48 h, read-out: Activity
SK-MEL-2 = test: Cytotoxicity against human SK-MEL-2 cells assessed as cell growth at 10 uM incubated for 48 hrs by sulforhodamine B assay relative to control; conditions: SK-MEL-2, 48 h, read-out: Activity
OVCAR-8 [11] = test: Cytotoxicity against human OVCAR8 cells assessed as cell growth at 10 uM incubated for 48 hrs by sulforhodamine B assay relative to control; conditions: OVCAR-8, 48 h, read-out: Activity
PC-3 = test: Cytotoxicity against human PC3 cells assessed as cell growth at 10 uM incubated for 48 hrs by sulforhodamine B assay relative to control; conditions: PC-3, 48 h, read-out: Activity
MDA-MB-468 = test: Cytotoxicity against human MDA-MB-468 cells assessed as cell growth at 10 uM incubated for 48 hrs by sulforhodamine B assay relative to control; conditions: MDA-MB-468, 48 h, read-out: Activity
K562 = test: Cytotoxicity against human K562 cells assessed as cell growth at 100 uM incubated for 48 hrs by sulforhodamine B assay relative to control; conditions: K562, 48 h, read-out: Activity
M14 [12] = test: Cytotoxicity against human M14 cells assessed as cell growth at 100 uM incubated for 48 hrs by sulforhodamine B assay relative to control; conditions: M14, 48 h, read-out: Activity
A498 = test: Cytotoxicity against human A498 cells assessed as cell growth at 100 uM incubated for 48 hrs by sulforhodamine B assay relative to control; conditions: A498, 48 h, read-out: Activity
Hs-578T = test: Cytotoxicity against human Hs 578T cells assessed as cell growth at 100 uM incubated for 48 hrs by sulforhodamine B assay relative to control; conditions: read-out: Activity
T47D [13] = test: Cytotoxicity against human T47D cells assessed as cell growth at 100 uM incubated for 48 hrs by sulforhodamine B assay relative to control; conditions: read-out: Activity
RPMI-8226 = test: Cytotoxicity against human RPMI8226 cells incubated for 48 hrs by sulforhodamine B assay; conditions: RPMI-8226, 48 h
HCT-116 [14] = test: Cytotoxicity against human HCT116 cells incubated for 48 hrs by sulforhodamine B assay; conditions: HCT-116, 48 h
ACHN [15] = test: Cytotoxicity against human ACHN cells incubated for 48 hrs by sulforhodamine B assay
SN12C = test: Cytotoxicity against human SN12C cells incubated for 48 hrs by sulforhodamine B assay

Work on `COc1ccc(-c2nocc2-c2cc(OC)c(OC)c(OC)c2)cc1` yielded a growth at 0.01 µM (MOLT-4) of 99%, a growth at 0.01 µM (NCI-H522) of 84% and a growth at 0.01 µM (HCT-116 [1]) of 92%. The growth at 0.01 µM (SW-620) was 94%, the growth at 0.01 µM (Malme-3M) was 86% and the growth at 0.01 µM (M14 [2]) was 90%. The growth at 0.01 µM (MDA-MB-435) was 79%, the growth at 0.01 µM (UACC-62) was 90% and the growth at 0.01 µM (OVCAR-5) was 89%. The growth at 0.01 µM (SK-OV-3) was 87%, the growth at 0.01 µM (DU-145 [3]) was 99% and the growth at 0.1 µM (NCI-H23 [4]) was 67%. The growth at 0.1 µM (HCC 2998) was 62%, the growth at 0.1 µM (HCT-116 [5]) was 21% and the growth at 0.1 µM (T47D [6]) was 43%. For the same compound, the growth at 1 µM (NCI-H23 [7]) was 29%, the growth at 1 µM (OVCAR-8 [8]) was 27% and the growth at 1 µM (ACHN [9]) was 52%. The growth at 1 µM (DU-145 [10]) was 17%, the growth at 10 µM (A549) was 29% and the growth at 10 µM (SK-MEL-2) was 43%. It also gave a growth at 10 µM (OVCAR-8 [11]) of 25%, a growth at 10 µM (PC-3) of 22% and a growth at 10 µM (MDA-MB-468) of 3%. It also gave a growth at 100 µM (K562) of 4%, a growth at 100 µM (M14 [12]) of -5% and a growth at 100 µM (A498) of -33%. It also gave a growth at 100 µM (Hs-578T) of 10%, a growth at 100 µM (T47D [13]) of -4% and a GI50 (RPMI-8226; read-out: GI50) of 0.44 µM. The CC50 (RPMI-8226; read-out: LC50 (the source's name)) was over 100 µM, the TGI (RPMI-8226; read-out: TGI) was 30.5 µM and the GI50 (RPMI-8226; read-out: pGI50 (converted)) was 0.437 µM. It also gave a CC50 (RPMI-8226; read-out: pLC50 (the source's name) (converted)) of over 100 µM, a TGI (RPMI-8226; read-out: pTGI (converted)) of 30.2 µM and a GI50 (HCT-116 [14]; read-out: GI50) of 0.039 µM. For the same compound, the LC50 (concentration killing 50% of cells) (HCT-116 [14]; read-out: LC50) was over 100 µM, the TGI (HCT-116 [14]; read-out: TGI) was 14.7 µM and the GI50 (HCT-116 [14]; read-out: pGI50 (converted)) was 0.0389 µM. The LC50 (concentration killing 50% of cells) (HCT-116 [14]; read-out: pLC50 (converted)) was over 100 µM, the TGI (HCT-116 [14]; read-out: pTGI (converted)) was 14.8 µM and the GI50 (ACHN [15]; read-out: GI50) was 1.19 µM. The LC50 (concentration killing 50% of cells) (ACHN [15]; read-out: LC50) was over 100 µM, the TGI (ACHN [15]; read-out: TGI) was 49.4 µM and the GI50 (ACHN [15]; read-out: pGI50 (converted)) was 1.2 µM. The LC50 (concentration killing 50% of cells) (ACHN [15]; read-out: pLC50 (converted)) was over 100 µM, the TGI (ACHN [15]; read-out: pTGI (converted)) was 49 µM and the GI50 (SN12C; read-out: GI50) was 0.825 µM. For the same compound, the LC50 (SN12C; read-out: LC50) was over 100 µM, the TGI (SN12C; read-out: TGI) was 92.6 µM and the GI50 (SN12C; read-out: pGI50 (converted)) was 0.832 µM. The LC50 (SN12C; read-out: pLC50 (converted)) was over 100 µM and the TGI (SN12C; read-out: pTGI (converted)) was 93.3 µM.
